Measurements taken from US20220395522A1, “Methods of Use of Glucosamine for Increasing Nitrogen Retention” (TSI Bioproducts (Xuzhou) Co., Ltd., priority 2021, published 2022).

Key:
Format in all cases: in vivo, human
[1] = tested on: Peptococcaceae; test: Fecal microbiota analysis, differential abundance of taxa (MaAsLin); settings: after GLU intake compared to baseline (GLU (Pre)), p=0.021
Protocol: (§1) To determine significant differences between bacterial alpha diversity metrics (the measure of microbiome diversity within a single sample), a paired t-test was used between alpha diversity values of different sample groups (p<0.05). Significant differences in beta diversity (the measure of similarity or dissimilarity of multiple samples) between groups was determined using the qiime diversity beta-group-significance command in QIIME2 as well, which performs pairwise Permutational Multivariate Analysis of Variance (PERMANOVA) tests on beta diversity distance matrices (p<0.05). Differential abundance of taxa between sample groups were evaluated using Multivariate Analysis by Linear Models (MaAsLin) in R version 4.0.2 using the Maaslin2 command in the Maaslin2 R library on rarified taxonomy data generated by QIIME2 (p<0.05). […]
(§2) A fecal microbiota analysis was further conducted. […] The Qubit Fluorometer (Thermo Fisher Scientific, San Francisco, Calif.) was used to quantify PCR product concentrations prior to combining the PCR products in equal quantities for purification with the Wizard SV Gel and PCR Cleanup kit (Promega, Madison, Wis.). […] Library purity and concentration was measured on a 2100 Bioanalyzer System (Agilent Technologies, Santa Clara, Calif.). […]
(§3) Ion Torrent BAM files of raw DNA sequencing data were converted to the FASTQ format using BEDTools and then analyzed using Quantitative Insights into Microbiology (QIIME2) version 2019.10. Reads shorter than 200 bp in length were removed. […] Multiple sequence Alignment using Fast Fourier Transform (MAFFT) was used for read alignment, while gapped and unconserved alignments were filtered using the alignment mask plugin. […] Sequences of mitochondria and chloroplast origin were filtered from downstream analysis, leaving a total of 1,391,259 total high-quality reads associated with taxonomic annotations. Samples were rarified to 7,874 reads for alpha and beta diversity analysis. […]

[2] = tested on: Pseudomonadaceae; test: as above; settings: after GLU intake compared to baseline (GLU (Pre)), p=0.014
Protocol: as §1, §2, §3

[3] = tested on: Bacillaceae; test: as above; settings: after GLU intake compared to baseline (GLU (Pre)), p=0.038
Protocol: as §1, §2, §3

[4] = tested on: fecal microbiota; test: Fecal microbiota analysis (16S rRNA), alpha and beta diversity
Protocol: To determine significant differences between bacterial alpha diversity metrics (the measure of microbiome diversity within a single sample), a paired t-test was used between alpha diversity values of different sample groups (p<0.05). Significant differences in beta diversity (the measure of similarity or dissimilarity of multiple samples) between groups was determined using the qiime diversity beta-group-significance command in QIIME2 as well, which performs pairwise Permutational Multivariate Analysis of Variance (PERMANOVA) tests on beta diversity distance matrices (p<0.05). Differential abundance of taxa between sample groups were evaluated using Multivariate Analysis by Linear Models (MaAsLin) in R version 4.0.2 using the Maaslin2 command in the Maaslin2 R library on rarified taxonomy data generated by QIIME2 (p<0.05). Additional evaluation of differential abundance of taxa was performed using Analysis of Composition of Microbiomes (ANCOM) using the qiime composition ancom command after collapsing the feature table to the family level (level 5) using the qiime taxa collapse command on QIIME2. Data visualization was performed using the ggplot2 package, with data frame manipulation commands from the dplyr package, within the tidyverse collection of R packages.
Stool specimens were collected at four time points throughout the entire study protocol. The first two samples were collected before and after the first supplementation period while the final two samples were collected before and after the second supplementation period. All stool specimens were collected no more than 24-hours prior to that study participant being scheduled to complete their laboratory visit. All samples were immediately frozen after sample collection by the study participants. […]
A fecal microbiota analysis was further conducted. […] The Qubit Fluorometer (Thermo Fisher Scientific, San Francisco, Calif.) was used to quantify PCR product concentrations prior to combining the PCR products in equal quantities for purification with the Wizard SV Gel and PCR Cleanup kit (Promega, Madison, Wis.). […]

Cl.N[C@H]1C(O)O[C@H](CO)[C@@H](O)[C@@H]1O (stereo partly drawn) [GLU, glucosamine hydrochloride]
Proportion of Peptococcaceae, Log2 FC [1]: −4.52 | Proportion of Pseudomonadaceae, Log2 FC [2]: −1.05 | Proportion of Bacillaceae [3]: not detected | Other alpha diversity measures (Observed OTUs or Shannon Evenness) ([4]; Post vs Pre, paired t-test p>0.05): not significantly altered | Changes in beta-diversity (unweighted Unifrac distances) ([4]; compared to baseline, PERMANOVA p>0.05): not significantly different | Alpha diversity of fecal bacterial communities, Faith's Phylogenetic Diversity (PD) ([4]; following GLU consumption compared to baseline, paired t-test p=4.59E-03): significantly decreased
